# Measured values from US20240002375A1, “2-(INDAZOL-5-YL)-6-(PIPERIDIN-4-YL)-1,7-NAPHTHYRIDINE DERIVATIVES AND RELATED COMPOUNDS AS MODULATORS FOR SPLICING NUCLEIC ACIDS AND FOR THE TRE” (REMIX THERAPEUTICS INC., priority 2020, published 2024).
# Where two headings read alike, the source gives them in different places.
# What was measured:
# Format in all cases: cell-based
# Target C CJ mRNA = assay: Gene panel canonical junction qPCR splicing assay, Target C; details: Table 4, read-out: Target C IC50 (decrease in CJ mRNA levels)
# Method: (§1) Compounds described herein were used to modulate RNA transcript abundance in cells. The expression of a target mRNA was measured by detecting the formation of an exon-exon junction in the canonical transcript (CJ). A compound mediated exon-inclusion event was detected by observing an increase in formation of a new junction with an alternative exon (AJ). Real-time qPCR assays were used to detect these splicing switches and interrogate the potency of various compounds towards different target genes. A high-throughput real time quantitative PCR (RT-qPCR) assay was developed to measure these two isoforms of the mRNA (CJ and AJ) for an exemplary gene, HTT, together with a control housekeeping gene, GAPDH or GUSB or PPIA, used for normalization. Briefly, the A673 or K562 cell line was treated with various compounds described herein (e.g., compounds of Formula (I) or (II)). After treatment, the levels of the HTT mRNA targets were determined from each sample of cell lysate by cDNA synthesis followed by qPCR. The data analysis was performed by first determining the ΔCt vs the housekeeper gene. This ΔCt was then normalized against the DMSO control (ΔΔCt) and converted to RQ (relative quantification) using the 2^(−ΔΔCt) equation. The RQ were then converted to a percentage response by arbitrarily setting an assay window of 3.5 ΔCt for HTT-CJ and an assay window of 9 ΔCt for HTT-AJ. […] The percentage response was then fitted to the 4 parametric logistic equation to evaluate the concentration dependence of compound treatment. The increase in AJ mRNA is reported as AC50 (compound concentration having 50% response in AJ increase) while the decrease in CJ mRNA levels is reported as IC50 (compound concentration having 50% response in CJ decrease). Additional studies were carried out for a larger panel of genes using the protocol provided above. The junction between flanking upstream and downstream exons was used to design canonical junction qPCR assays. At least one of the forward primer, reverse primer or the CY5-labeled 5′ nuclease probe (with 3′ quencher such as ZEN/Iowa Black FQ) was designed to overlap with the exon junction to capture the CJ mRNA transcript. BLAST was used to confirm the specificity of the probeset and parameters such as melting temperature, GC content, amplicon size, and primer dimer formation are considered during their design. Data for the decrease in CJ mRNA levels for three exemplary genes (HTT, SMN2, and Target C) analyzed in this panel are reported as IC50 (compound concentration having 50% response in CJ decrease).
# SMN2 CJ mRNA = assay: Gene panel canonical junction qPCR splicing assay, SMN2; details: Table 4, read-out: SMN2 IC50 (decrease in CJ mRNA levels)
# Method: as §1
# HTT CJ mRNA = assay: Gene panel canonical junction qPCR splicing assay, HTT; details: Table 4, read-out: HTT IC50 (decrease in CJ mRNA levels)
# Method: as §1
# HTT mRNA = assay: Splicing assay (RT-qPCR) of HTT mRNA alternative junction (AJ) and canonical junction (CJ)
# Method: Compounds described herein were used to modulate RNA transcript abundance in cells. The expression of a target mRNA was measured by detecting the formation of an exon-exon junction in the canonical transcript (CJ). A compound mediated exon-inclusion event was detected by observing an increase in formation of a new junction with an alternative exon (AJ). Real-time qPCR assays were used to detect these splicing switches and interrogate the potency of various compounds towards different target genes. A high-throughput real time quantitative PCR (RT-qPCR) assay was developed to measure these two isoforms of the mRNA (CJ and AJ) for an exemplary gene, HTT, together with a control housekeeping gene, GAPDH or GUSB or PPIA, used for normalization. Briefly, the A673 or K562 cell line was treated with various compounds described herein (e.g., compounds of Formula (I) or (II)). After treatment, the levels of the HTT mRNA targets were determined from each sample of cell lysate by cDNA synthesis followed by qPCR.
# Materials: • Cells-to-CT 1-step kit: ThermoFisher A25602, Cells-to-CT lysis reagent: ThermoFisher 4391851C, TagMan™ Fast Virus 1-Step Master Mix: ThermoFisher 4444436 • GAPDH: VIC-PL, ThermoFisher 4326317E (Assay: Hs99999905_ml)—used for K562/suspension cell lines • GUSB: VIC-PL, ThermoFisher 4326320E (Assay: Hs99999908 ml)—used for K562/suspension cell lines • PPIA: VIC-PL, ThermoFisher 4326316E (Assay: Hs99999904 ml)—used for A673/adherent cell lines
# The A673 cell line was cultured in DMEM with 10% FBS. Cells were diluted with full growth media and plated in a 96-well plate (15,000 cells in 100 ul media per well). The plate was incubated at 37° C. with 5% CO2 for 24 hours to allow cells to adhere. An 11-point 3-fold serial dilution of the compounds was made in DMSO then diluted in media in an intermediate plate. Compounds were transferred from the intermediate plate to the cell plate with the top dose at a final concentration of 10 uM in the well. Final DMSO concentration was kept at or below 0.25%. The cell plate was returned to the incubator at 37° C. with 5% CO2 for an additional 24 hours.
# The K562 cell line was cultured in IMDM with 10% FBS. For K562, cells were diluted with full growth media and plated in either a 96-well plate (50,000 cells in 50 uL media per well) or a 384-well plate (8,000-40,000 cells in 45 uL media per well). An 11-point 3-fold serial dilution of the compounds were made in DMSO then diluted in media in an intermediate plate. Compound was transferred from the intermediate plate to the cell plate with the top dose at a final concentration of 10 uM in the well. Final DMSO concentration was kept at or below 0.25%. Final volume was 100 uL for 96-well plate and 50 uL for 384-well plate. The cell plate was then placed in an incubator at 37° C. with 5% CO2 for 24 hours.
# The cells were then gently washed with 50 uL-100 uL cold PBS before proceeding to addition of lysis buffer. 30 uL-50 uL of room temperature lysis buffer with DNAse I (and optionally RNAsin) was added to each well. Cells were shaken/mixed thoroughly at room temperature for 5-10 minutes for lysis to take place and then 3 uL-5 uL of room temperature stop solution was added and wells were shaken/mixed again. After 2-5 minutes, the cell lysate plate was transferred to ice for RT-qPCR reaction setup. The lysates could also be frozen at −80° C. for later use.
# In some cases, a direct lysis buffer was used. An appropriate volume of 3X lysis buffer (10 mM Tris, 150 mM NaCl, 1.5%-2.5% Igepal and 0.1-1 U/uL RNAsin, pH 7.4) was directly added to either K562 or A673 cells in media and mixed by pipetting 3 times. The plates were then incubated at room temperature with shaking/rocking for 20-50 minutes to allow for lysis to take place. After this time, the cell lysate plate was transferred to ice to set up for the RT-qPCR reactions. The lysates could also be frozen at −80° C. for later use. […]
# [1] = decrease in CJ mRNA, A673 or K562 cells, 24 hours, read-out: HTT CJ IC50
# [2] = increase in AJ mRNA, A673 or K562 cells, 24 hours, read-out: HTT AJ AC50
IC50 (Target C CJ mRNA) [nM],IC50 (SMN2 CJ mRNA) [nM],IC50 (HTT CJ mRNA) [nM],IC50 (HTT mRNA; [1]) [nM],SMILES,"AC50 (HTT mRNA; 24 h, read-out: HTT AJ AC50 (nM)) [nM]","IC50 (HTT mRNA; 24 h, read-out: HTT CJ IC50 (nM)) [nM]",AC50 (HTT mRNA; [2]) [nM]
< 100,< 100,< 100,< 100,"Cc1nc2cc(O)c(-c3ccc4nc(N5CC[C@H](NC6(C)CC6)C5)ccc4n3)cc2o1 (single isomer, unassigned) [Compound 257, 2-methyl-6-(6-{3-[(1-methylcyclopropyl)amino]pyrrolidin-1-yl}-1,5-naphthyridin-2-yl)-1,3-benzoxazol-5-ol]",–,–,< 100
100 to 1000,< 100,< 100,< 100,"C[C@H]1C[C@H](c2ccc3nc(-c4cc5cn(C)nc5cc4O)ccc3n2)CCN1 (relative stereo) [Compound 139, 2-methyl-5-[6-[(2S,4R)-2-methylpiperidin-4-yl]-1,5-naphthyridin-2-yl]indazol-6-ol]",–,–,< 100
> 10000,1000 to 10000,> 10000,> 10000,Cc1nc(-c2ccc3nc(N4CCC(NC(C)(C)C)C4)ccc3n2)cc2cn(C)nc12 (centres unmarked) [Compound 208],–,–,> 10000
1000 to 10000,< 100,1000 to 10000,1000 to 10000,"CN(C)C1CCN(c2ccc3nc(-c4cc5cn(C)nc5cc4O)ccc3n2)CC1 [Compound 133, 5-[6-[4-(dimethylamino)piperidin-1-yl]-1,5-naphthyridin-2-yl]-2-methylindazol-6-ol]",–,–,1000 to 10000
< 100,< 100,< 100,< 100,"Cn1cc2cc(-c3ccc4nc(C5CCNCC5)ccc4n3)c(O)cc2n1 [Compound 100, 2-methyl-5-[6-(piperidin-4-yl)-1,5-naphthyridin-2-yl]indazol-6-ol]",–,–,100 to 1000
> 10000,< 100,> 10000,> 10000,"Cc1nc2cc(O)c(-c3ccc4nc(N5CCC(NC(C)(C)C)C5)ccc4n3)cc2s1 (centres unmarked) [Compound 190, 6-{6-[3-(tert-butylamino)pyrrolidin-1-yl]-1,5-naphthyridin-2-yl}-2-methyl-1,3-benzothiazol-5-ol; trifluoroacetic acid]",–,–,> 10000
100 to 1000,< 100,< 100,< 100,"Cc1nc2cc(O)c(-c3ccc4nc(N5CC[C@@H](NC6(C)CC6)C5)ccc4n3)cc2o1 (single isomer, unassigned) [Compound 258, 2-methyl-6-(6-{3-[(1-methylcyclopropyl)amino]pyrrolidin-1-yl}-1,5-naphthyridin-2-yl)-1,3-benzoxazol-5-ol]",–,–,< 100
1000 to 10000,100 to 1000,1000 to 10000,1000 to 10000,Cn1cc2cc(-c3ccc4nc(OC5CNC5)ccc4n3)c(O)cc2n1 [Compound 159],–,–,1000 to 10000
> 10000,100 to 1000,> 10000,> 10000,Cn1cc2cc(-c3ccc4nc(N5CCC56CCCNC6)ccc4n3)c(O)cc2n1 (centres unmarked) [Compound 163],–,–,> 10000
< 100,< 100,< 100,< 100,Cc1nc2cc(O)c(-c3ccc4nc(N5CC[C@H](NC(C)(C)C)C5)ccc4n3)cc2o1 [Compound 209],–,–,< 100
> 10000,1000 to 10000,1000 to 10000,1000 to 10000,"Cn1cc2cc(-c3ccc4nc(N5CC[C@H](NCC(F)(F)F)C5)ccc4n3)c(O)cc2n1 [Compound 182, 2-methyl-5-{6-[(3S)-3-[(2,2,2-trifluoroethyl)amino]pyrrolidin-1-yl]-1,5-naphthyridin-2-yl}indazol-6-ol]",–,–,> 10000
< 100,< 100,< 100,< 100,"Cc1cn2nc(-c3ccc4nc(C5CCNCC5)ccc4n3)c(O)c2c(C)n1 [Compound 150, 4,6-dimethyl-2-[6-(piperidin-4-yl)-1,5-naphthyridin-2-yl]pyrazolo[1,5-a]pyrazin-3-01]",–,–,< 100
< 100,< 100,< 100,< 100,"Cn1cc2cc(-c3ccc4nc(N5CCC(NC(C)(C)C)C5)ccc4n3)c(O)cc2n1 (centres unmarked) [Compound 127, 5-[6-[3-(tert-butylamino)pyrrolidin-1-yl]-1,5-naphthyridin-2-yl]-2-methylindazol-6-ol]",–,–,< 100

SMILES,IC50 (Target C CJ mRNA) [nM],IC50 (SMN2 CJ mRNA) [nM],IC50 (HTT CJ mRNA) [nM],IC50 (HTT mRNA; [1]) [nM],"AC50 (HTT mRNA; 24 h, read-out: HTT AJ AC50 (nM)) [nM]","IC50 (HTT mRNA; 24 h, read-out: HTT CJ IC50 (nM)) [nM]",AC50 (HTT mRNA; [2]) [nM]
"Cn1cc2cc(-c3ccc4nc(N5CC[C@H](NC6CCC6)C5)ccc4n3)c(O)cc2n1 [Compound 156, 5-{6-[(3S)-3-(cyclobutylamino)pyrrolidin-1-yl]-1,5-naphthyridin-2-yl}-2-methylindazol-6-ol]",100 to 1000,< 100,< 100,–,< 100,< 100,–
CN1CCC(N(C)c2ccc3nc(-c4cc5cn(C)nc5cc4O)ccc3n2)CC1 [Compound 126],< 100,< 100,100 to 1000,100 to 1000,–,–,100 to 1000
CN(c1ccc2nc(-c3cc4cn(C)nc4cc3O)ccc2n1)C1CC(C)(C)NC(C)(C)C1 [Compound 130],> 10000,100 to 1000,> 10000,> 10000,–,–,> 10000
